Data: ChEMBL document CHEMBL1201862, “PubChem BioAssay data set” (2004)
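Interpolation was linear, between the two tested concentrations surrounding the appropriate level; five concentrations were tested over 48 hours in 96-well plates. Abbreviation: GI50, concentration required for 50% inhibition of growth.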 Active and inactive are the calls of the source. No stated cut-off is given here; in the data, active = GI50 up to about 1.1 µM and inactive = higher.

Tests used:
Experiment in all cases: DTP human tumour cell line panel, 48 h
786-0 = system: 786-0
A498 = system: A498
A549 = system: A549
ACHN = system: ACHN
BT-549 = system: BT-549
CCRF-CEM = system: CCRF-CEM
COLO 205 = system: COLO 205
DU-145 = system: DU-145
EKVX = system: EKVX
HCC 2998 = system: HCC 2998
HCT-116 = system: HCT-116
HCT-15 = system: HCT-15
HL-60 = system: HL-60
HOP-62 = system: HOP-62
HT-29 = system: HT-29
Hs-578T = system: Hs-578T
IGROV-1 = system: IGROV-1
K562 = system: K562
LOX IMVI = system: LOX IMVI
M14 = system: M14
MCF7 = system: MCF7
MDA-MB-231 = system: MDA-MB-231
MDA-MB-435 = system: MDA-MB-435
MDA-N = system: MDA-N
MOLT-4 = system: MOLT-4
Malme-3M = system: Malme-3M
NCI-H226 = system: NCI-H226
NCI-H23 = system: NCI-H23
NCI-H460 = system: NCI-H460
NCI-H522 = system: NCI-H522
NCI/ADR-RES = system: NCI/ADR-RES
OVCAR-3 = system: OVCAR-3
OVCAR-4 = system: OVCAR-4
OVCAR-5 = system: OVCAR-5
OVCAR-8 = system: OVCAR-8
PC-3 = system: PC-3
RPMI-8226 = system: RPMI-8226
RXF 393 = system: RXF 393
SF-268 = system: SF-268
SF-295 = system: SF-295
SF-539 = system: SF-539
SK-MEL-28 = system: SK-MEL-28
SK-MEL-2 = system: SK-MEL-2
SK-MEL-5 = system: SK-MEL-5
SK-OV-3 = system: SK-OV-3
SN12C = system: SN12C
SNB-19 = system: SNB-19
SNB-75 = system: SNB-75
SR = system: SR
SW-620 = system: SW-620
T47D = system: T47D
TK-10 = system: TK-10
U-251 = system: U-251
UACC-62 = system: UACC-62
UO-31 = system: UO-31
CAKI-1 = system: CAKI-1
HOP-92 = system: HOP-92
KM12 = system: KM12
UACC-257 = system: UACC-257

With `CNc1ccc(OC)cc1S(=O)(=O)c1ccccc1[N+](=O)[O-]` the GI50 (786-0) was > 100 µM (inactive), the GI50 (A498) was 47.4 µM (inactive) and the GI50 (A549) was 98.2 µM (inactive). For the same compound, the GI50 (ACHN) was > 100 µM (inactive), the GI50 (BT-549) was 75.2 µM (inactive) and the GI50 (CCRF-CEM) was 26.7 µM (inactive). For the same compound, the GI50 (COLO 205) was > 100 µM (inactive), the GI50 (DU-145) was > 100 µM (inactive) and the GI50 (EKVX) was 47.1 µM (inactive). For the same compound, the GI50 (HCC 2998) was > 100 µM (inactive), the GI50 (HCT-116) was > 100 µM (inactive) and the GI50 (HCT-15) was over 100 µM. For the same compound, the GI50 (HL-60) was > 100 µM (inactive), the GI50 (HOP-62) was > 100 µM (inactive) and the GI50 (HT-29) was > 100 µM (inactive). The GI50 (Hs-578T) was > 100 µM (inactive), the GI50 (IGROV-1) was > 100 µM (inactive) and the GI50 (K562) was 43.2 µM (inactive). For the same compound, the GI50 (LOX IMVI) was > 100 µM (inactive), the GI50 (M14) was > 100 µM (inactive) and the GI50 (MCF7) was > 100 µM (inactive). For the same compound, the GI50 (MDA-MB-231) was > 100 µM (inactive), the GI50 (MDA-MB-435) was > 100 µM (inactive) and the GI50 (MDA-N) was > 100 µM (inactive). For the same compound, the GI50 (MOLT-4) was 27 µM (inactive), the GI50 (Malme-3M) was 82.8 µM (inactive) and the GI50 (NCI-H226) was > 100 µM (inactive). For the same compound, the GI50 (NCI-H23) was > 100 µM (inactive), the GI50 (NCI-H460) was > 100 µM (inactive) and the GI50 (NCI-H522) was 92.3 µM (inactive). The GI50 (NCI/ADR-RES) was 69.8 µM (inactive), the GI50 (OVCAR-3) was > 100 µM (inactive) and the GI50 (OVCAR-4) was > 100 µM (inactive). The GI50 (OVCAR-5) was > 100 µM (inactive), the GI50 (OVCAR-8) was > 100 µM (inactive) and the GI50 (PC-3) was 52.7 µM (inactive). The GI50 (RPMI-8226) was > 100 µM (inactive), the GI50 (RXF 393) was > 100 µM (inactive) and the GI50 (SF-268) was > 100 µM (inactive). The GI50 (SF-295) was > 100 µM (inactive), the GI50 (SF-539) was > 100 µM (inactive) and the GI50 (SK-MEL-28) was > 100 µM (inactive). The GI50 (SK-MEL-2) was > 100 µM (inactive), the GI50 (SK-MEL-5) was 51.3 µM (inactive) and the GI50 (SK-OV-3) was > 100 µM (inactive). For the same compound, the GI50 (SN12C) was > 100 µM (inactive), the GI50 (SNB-19) was > 100 µM (inactive) and the GI50 (SNB-75) was > 100 µM (inactive). For the same compound, the GI50 (SR) was > 100 µM (inactive), the GI50 (SW-620) was > 100 µM (inactive) and the GI50 (T47D) was 49.8 µM (inactive). The GI50 (TK-10) was > 100 µM (inactive), the GI50 (U-251) was > 100 µM (inactive) and the GI50 (UACC-62) was > 100 µM (inactive). For the same compound, the GI50 (UO-31) was > 100 µM (inactive).
With `CC(C)Nc1n[nH]c(=O)n1C(C)C` the GI50 (786-0) was > 100 µM (inactive), the GI50 (A498) was > 100 µM (inactive) and the GI50 (A549) was > 100 µM (inactive). The GI50 (ACHN) was > 100 µM (inactive), the GI50 (BT-549) was > 100 µM (inactive) and the GI50 (CAKI-1) was > 100 µM (inactive). For the same compound, the GI50 (CCRF-CEM) was > 100 µM (inactive), the GI50 (COLO 205) was > 100 µM (inactive) and the GI50 (DU-145) was > 100 µM (inactive). For the same compound, the GI50 (EKVX) was > 100 µM (inactive), the GI50 (HCT-116) was > 100 µM (inactive) and the GI50 (HCT-15) was over 100 µM. The GI50 (HL-60) was > 100 µM (inactive), the GI50 (HOP-62) was > 100 µM (inactive) and the GI50 (HOP-92) was > 100 µM (inactive). For the same compound, the GI50 (HT-29) was > 100 µM (inactive), the GI50 (Hs-578T) was 49.9 µM (inactive) and the GI50 (IGROV-1) was > 100 µM (inactive). For the same compound, the GI50 (K562) was > 100 µM (inactive), the GI50 (KM12) was > 100 µM (inactive) and the GI50 (LOX IMVI) was > 100 µM (inactive). For the same compound, the GI50 (M14) was > 100 µM (inactive), the GI50 (MCF7) was > 100 µM (inactive) and the GI50 (MDA-MB-231) was > 100 µM (inactive). The GI50 (MDA-MB-435) was > 100 µM (inactive), the GI50 (MDA-N) was > 100 µM (inactive) and the GI50 (MOLT-4) was > 100 µM (inactive). For the same compound, the GI50 (NCI-H226) was 81.5 µM (inactive), the GI50 (NCI-H23) was > 100 µM (inactive) and the GI50 (NCI-H460) was > 100 µM (inactive). The GI50 (NCI/ADR-RES) was > 100 µM (inactive), the GI50 (OVCAR-3) was > 100 µM (inactive) and the GI50 (OVCAR-5) was > 100 µM (inactive). The GI50 (OVCAR-8) was > 100 µM (inactive), the GI50 (PC-3) was > 100 µM (inactive) and the GI50 (RPMI-8226) was > 100 µM (inactive). For the same compound, the GI50 (SF-268) was > 100 µM (inactive), the GI50 (SF-295) was > 100 µM (inactive) and the GI50 (SF-539) was > 100 µM (inactive). For the same compound, the GI50 (SK-MEL-28) was > 100 µM (inactive), the GI50 (SK-MEL-2) was > 100 µM (inactive) and the GI50 (SK-MEL-5) was > 100 µM (inactive). The GI50 (SK-OV-3) was > 100 µM (inactive), the GI50 (SN12C) was > 100 µM (inactive) and the GI50 (SNB-19) was > 100 µM (inactive). For the same compound, the GI50 (SNB-75) was 99.3 µM (inactive), the GI50 (SR) was > 100 µM (inactive) and the GI50 (SW-620) was > 100 µM (inactive). The GI50 (T47D) was > 100 µM (inactive), the GI50 (TK-10) was > 100 µM (inactive) and the GI50 (U-251) was > 100 µM (inactive). The GI50 (UACC-257) was > 100 µM (inactive), the GI50 (UACC-62) was > 100 µM (inactive) and the GI50 (UO-31) was > 100 µM (inactive).
